Reference: patent publication US8946286B2, “Organic amine salts of aminobenzoic acid derivatives and method for producing same” (Nissan Chemical Industries, Ltd., priority 2010, dated 2015)

Key:
[1] = Photostability test; format: physicochemical; settings: 25° C./60% RH, vessel left open, light of 200 W·hr·m^2 for 57 hours
Procedure: (§1) In the following Assay Examples 2 to 4, the stability of the ethanolamine salt (1), tromethamine salt (2), choline salt (3) and potassium salt (4) of 3-{[((2E)-2-{1-[5-(4-t-butylphenyl)-4-hydroxy-3-thienyl]ethylidene}hydrazino)carbonothioyl]amino}benzoic acid to temperature, humidity and light was evaluated, by related substance increase (%), weight change (%) or TG loss change (%) through appropriate selection.
(§2) Related substance increase (%)
(§3) Each sample was analyzed by high performance liquid chromatography before and after treatment, and the sum of area percentages for analogues in each sample were calculated. • Column: L-column ODS (Chemicals Evaluation and Research Institute, Japan inner diameter 4.6 mm, length 250 mm) • Detector: UV absorptiometer (wavelength; […]) • Column temperature: 40° C. • Flow rate: 1.0 mL/min • Injection volume: 10 μL • Mobile phase: (a) 0.01 M ammonium formate buffer (pH 3.0) • (b) acetonitrile Measurements were carried out with a gradient between the above (a) and (b) solutions.
(§4) Each sample was weighed before and after treatment, and weight gain was calculated in percentages from the difference in weight. The magnitude of weight change during treatment is an indication of stability of a compound. TG loss change (%);
(§5) About 5 mg of each sample was weighed out before and after treatment and put in an aluminum pan, and TG measurements were performed with the pan left open. The rate of TG loss of each sample was calculated in percentages (%). The measuring conditions are shown below.
(§6) Measuring Conditions; • Instrument:TG8120 (Rigaku Corporation) • Measuring range: room temperature to 105° C. • Heating rate: 5° C./min • Atmosphere: air 50 mL/min
(§7) An increase in TG loss from the initial value indicates possibility of moisture absorption and degradation of a compound. Therefore, the magnitude of change in TG loss is an indication of stability of a compound.
The photostability of the ethanolamine salt (1), tromethamine salt (2), choline salt (3) and potassium salt (4) of 3-{[((2E)-2-{1-[5-(4-t-butylphenyl)-4-hydroxy-3-thienyl]ethylidene}hydrazino)carbonothioyl]amino}benzoic acid was evaluated as follows.
About 1 g of each sample was put in a transparent glass vessel at 25° C./60% RH (relative humidity) with the vessel left open and irradiated with light of 200 W·hr·m^2 for 57 hours. […], the sample was withdrawn, and the related substance increase (%), weight change (%) and TG loss change (%) were evaluated.

[2] = Initial values of TG loss and related substances before treatment; format: physicochemical; settings: initial value before treatment; for Related substances (%): HPLC, sum of area percentages for analogues; for TG loss (%): TG room temperature to 105° C.
Procedure: as §2, §3, §5, §6

[3] = Hygrostability test; format: physicochemical; settings: 25° C./90% RH for 2 weeks, vessel left open
Procedure: as §1, §2, §3, §4, §5, §6, §7
The hygrostability of the ethanolamine salt (1), tromethamine salt (2), choline salt (3) and potassium salt (4) of 3-{[((2E)-2-{1-[5-(4-t-butylphenyl)-4-hydroxy-3-thienyl]ethylidene}hydrazino)carbonothioyl]amino}benzoic acid was evaluated as follows.
About 1 g of each sample was put in a transparent glass vessel and maintained at 25° C./90% RH (relative humidity) for 2 weeks with the vessel left open. After 2 weeks, the sample was withdrawn, and the related substance increase (%), weight change (%) and TG loss change (%) were evaluated.

[4] = Thermal stability test; format: physicochemical; settings: 60° C. for 2 weeks without humidity control, brown glass vessel
Procedure: as §1, §2, §3
The thermal stability of the ethanolamine salt (1), tromethamine salt (2), choline salt (3) and potassium salt (4) of 3-{[((2E)-2-{1-[5-(4-t-butylphenyl)-4-hydroxy-3-thienyl]ethylidene}hydrazino)carbonothioyl]amino}benzoic acid was evaluated as follows.
Each sample was put in a brown glass vessel, and the vessel was left at 60° C. for 2 weeks without humidity control. After 2 weeks, the sample was withdrawn, and the related substance increase (%) was evaluated.

[5] = Oral absorption test on dogs; format: in vivo; settings: beagle dogs, oral capsule, 360 mg/dog; ratio to Compound A (free form)
Procedure: Oral Absorption Test on Dogs
The free form (Compound A), potassium salt, organic amine salts (ethanolamine salt and tromethamine salt) and salt of quaternary ammonium ion (choline salt) of 3-{[((2E)-2-{1-[5-(4-t-butylphenyl)-4-hydroxy-3-thienyl]ethylidene}hydrazino)carbonothioyl]amino}benzoic acid in capsule were orally administered to beagle dogs at a dose of 360 mg/dog. 0.5, 1, 2, 4, 6, 8 and 24 hours after the administration, blood was collected to obtain plasma samples. Their concentrations in dog plasma were measured by LC/MS/MS. Using the plasma concentrations obtained, maximum plasma concentration (Cmax), time to maximum plasma concentration (Tmax) and area under the plasma concentration-time curve were calculated.
In FIG. 1, * represents Compound A (Free Acid), ♦ represents the potassium salt (Potassium Salt), □ represents the choline salt (Choline Salt), ▴ represents ethanolamine (Ethanolamine Salt), and ◯ represents the tromethamine salt (Tromethamine Salt).

For `C/C(=N\NC(=S)Nc1cccc(C(=O)O)c1)c1csc(-c2ccc(C(C)(C)C)cc2)c1O.NCCO` [(1), Ethanolamine salt of 3-{[((2E)-2-{1-[5-(4-t-butylphenyl)-4-hydroxy-3-thienyl]ethylidene}hydrazino)carbonothioyl]amino}benzoic acid], the Related substance increase [1] was −0.01%, the TG loss change [1] was −0.25% and the Weight change [1] was 0.23%. The “Related substances (%)” value [2] was 0.34%, the “TG loss (%)” value [2] was 0.64% and the Related substance increase [3] was 0.04%. It also gave a TG loss change [3] of −0.26%, a Weight change [3] of 0.29% and a Related substance increase [4] of 0.16%.
`C/C(=N\NC(=S)Nc1cccc(C(=O)[O-])c1)c1csc(-c2ccc(C(C)(C)C)cc2)c1O.C[N+](C)(C)CCO` [(3), Choline salt of 3-{[((2E)-2-{1-[5-(4-t-butylphenyl)-4-hydroxy-3-thienyl]ethylidene}hydrazino)carbonothioyl]amino}benzoic acid] gave a Related substance increase [1] of 0.00%, a TG loss change [1] of 0.58% and a Weight change [1] of 0.17%. For the same molecule, the “Related substances (%)” value [2] was 0.34%, the “TG loss (%)” value [2] was 1.19% and the Related substance increase [3] was −0.01%. It also gave a TG loss change [3] of 0.66%, a Weight change [3] of 0.10% and a Related substance increase [4] of −0.01%.
Molecule `C/C(=N\NC(=S)Nc1cccc(C(=O)O)c1)c1csc(-c2ccc(C(C)(C)C)cc2)c1O.NC(CO)(CO)CO` [(2), Tromethamine salt of 3-{[((2E)-2-{1-[5-(4-t-butylphenyl)-4-hydroxy-3-thienyl]ethylidene}hydrazino)carbonothioyl]amino}benzoic acid] has a Related substance increase [1] of 0.01%, a TG loss change [1] of −0.13% and a Weight change [1] of 0.01%. For the same molecule, the “Related substances (%)” value [2] was 0.07%, the “TG loss (%)” value [2] was 0.11% and the Related substance increase [3] was −0.03%. For the same molecule, the TG loss change [3] was −0.13%, the Weight change [3] was 0.00% and the Related substance increase [4] was −0.01%.
`C/C(=N\NC(=S)Nc1cccc(C(=O)[O-])c1)c1csc(-c2ccc(C(C)(C)C)cc2)c1O.[K+]` [(4), Potassium 3-{[((2E)-2-{1-[5-(4-t-butylphenyl)-4-hydroxy-3-thienyl]ethylidene}hydrazine)carbonothioyl]amino}benzoate, reference compound] showed a Related substance increase [1] of 0.27%, a TG loss change [1] of 3.16% and a Weight change [1] of 9.36%. The “area under the plasma concentration-time curve (AUC), times better than Compound A” value [5] was 6.3 times, the “maximum plasma concentration (Cmax), times better than Compound A” value [5] was 7.2 times and the “Related substances (%)” value [2] was 1.86%. The “TG loss (%)” value [2] was 3.18%, the Related substance increase [3] was 0.39% and the TG loss change [3] was 7.86%. It also gave a Weight change [3] of 23.22% and a Related substance increase [4] of 2.46%.
